Results published in patent publication US11000033B2, “Ketone or oxime compound, and herbicide” (NISSAN CHEMICAL CORPORATION, priority 2014, dated 2021).

Columns and labels:
Type in all cases: in vivo
wheat = experiment: Test Example 4: effect on crop by soil treatment (symbol e); conditions: application herbicide amount 320 g/ha
Outline: (§1)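 Greenhouse culture at 25° C. to 30° C. followed sowing of seed in spots on sterilized diluvial soil with a soil cover close to 1.5 cm thick.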

Leptochloa chinensis = experiment: Test Example 3: herbicidal effect by foliage application, Wagner pot (symbol D); conditions: application herbicide amount 320 g/ha
Outline: (§2)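 Rating at 3 weeks post-spray, by defined criteria. Treatment: emulsion diluted with water to a predetermined amount, applied evenly to foliage of 14-day-old plants raised in alluvial soil flooded 0.1–0.5 cm deep at 25–30 °C, rice co-sown.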

beet = experiment: Test Example 5: effect on crop by foliage application, plastic box (symbol f); conditions: 320 g/ha, 3 weeks after application
Outline: (§3)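 Diluvial soil, sterilized and boxed (21 × 13 × 7 cm), received spot-sown seed covered by about 1.5 cm soil; plants were then greenhouse-grown at 25–30° C.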

Scirpus juncoides = experiment: Test Example 2: herbicidal activity, application during weed generation in submerged conditions (symbol B); conditions: Table 23; application herbicide amount 320 g/ha; grade 0-5 by criteria of Test Example 1
Outline: (§4)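 Flooded-soil post-emergence test: emulsion of compound, water-diluted to target rate, applied to paddy water surface at 1–2 leaf stage of mixed-sown weeds (alluvial soil, 4 cm water, 25–30° C. greenhouse); visual rating 3 weeks after application.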

rice plant = experiment: Test Example 5: effect on crop by foliage application, plastic box (symbol b); conditions: 320 g/ha, 3 weeks after application
Outline: as §3

Monochoria vaginalis = experiment: Test Example 1: herbicidal activity, application before weed generation in submerged conditions (symbol C); conditions: application herbicide amount 320 g/ha
Outline: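 Scores run 0 to 5 by herbicidal ratio, with 5 meaning 90% or more and 0 meaning 5% or lower, read 3 weeks after treatment. Compound was applied as a diluted emulsion to the water surface of submerged alluvial-soil pots on the day weed seeds were sown.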

soybean [1] = experiment: Test Example 4: effect on crop by soil treatment (symbol d); conditions: application herbicide amount 320 g/ha
Outline: as §1

Cyperus difformis = experiment: Test Example 3: herbicidal effect by foliage application, Wagner pot (symbol E); conditions: application herbicide amount 320 g/ha
Outline: as §2

transplanted rice plant = experiment: Test Example 1: effect on crop, application before weed generation in submerged conditions (symbol a); conditions: application herbicide amount 320 g/ha
Outline: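 Alluvial soil pots flooded to 4 cm water, sown with Echinochloa oryzacola, Scirpus juncoides and Monochoria vaginalis, then transplanted with 2.5 leaf stage rice seedlings; pre-emergence application. Greenhouse 25° C. to 30° C.; scored 0–5 by herbicidal ratio 3 weeks after application.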

Abutilon theophrasti = experiment: Test Example 4: herbicidal effect by soil treatment (symbol M); conditions: application herbicide amount 320 g/ha
Outline: (§5)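 Seeds were sown in sterilized diluvial soil, covered with about 1.5 cm of soil, and the soil surface was sprayed with a water-diluted emulsion of the compound at a predetermined rate. Plants grew in a greenhouse at 25° C. to 30° C.; effects were scored visually 3 weeks after application.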

corn [2] = experiment: Test Example 4: effect on crop by soil treatment (symbol c); conditions: application herbicide amount 320 g/ha
Outline: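 The test used sterilized diluvial soil. Seed was set down in spots and overlaid with about 1.5 cm of soil before growth in a greenhouse kept at 25° C. to 30° C.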

[3] = system: Echinochloa crus-galli var. crus-galli; experiment: Test Example 3: herbicidal effect by foliage application, Wagner pot (symbol H); conditions: application herbicide amount 320 g/ha
Outline: as §2

corn [4] = experiment: Test Example 5: effect on crop by foliage application, plastic box (symbol c); conditions: 320 g/ha, 3 weeks after application
Outline: as §3

soybean [5] = experiment: Test Example 5: effect on crop by foliage application, plastic box (symbol d); conditions: 320 g/ha, 3 weeks after application
Outline: as §3

Stellaria media = experiment: Test Example 4: herbicidal effect by soil treatment (symbol P); conditions: application herbicide amount 320 g/ha
Outline: as §5

[6] = system: Echinochloa oryzacola Vasing.; experiment: Test Example 2: herbicidal activity, application during weed generation in submerged conditions (symbol A); conditions: Table 23; application herbicide amount 320 g/ha; grade 0-5 by criteria of Test Example 1
Outline: as §4

| SMILES | f: beet, effect on crop (criteria of Test Example 1) (beet) | Herbicidal effect grade, B: Scirpus juncoides (Scirpus juncoides) | b: directly sowed rice plant, effect on crop (criteria of Test Example 1) (rice plant) | Herbicidal effect grade, C: Monochoria vaginalis (Monochoria vaginalis) | Effect grade on crop, a: transplanted rice plant (transplanted rice plant) | c: corn, effect on crop (criteria of Test Example 1) (corn [4]) | d: soybean, effect on crop (criteria of Test Example 1) (soybean [5]) | Herbicidal effect grade, A: Echinochloa oryzacola Vasing. [6] | further results |
| --- | --- | --- | --- | --- | --- | --- | --- | --- | --- |
| CON=C(C)CC1CC(O)=C(c2c(C)cc(-c3ccc(F)cc3)cc2C)C1=O (mixture of isomers) [6-058] | 5 (Herbicidal ratio of 90% or more (almost completely withered)) | 5 (Herbicidal ratio of 90% or more (almost completely withered)) | 5 (Herbicidal ratio of 90% or more (almost completely withered)) | 5 (Herbicidal ratio of 90% or more (almost completely withered)) | 5 (Herbicidal ratio of 90% or more (almost completely withered)) | 5 (Herbicidal ratio of 90% or more (almost completely withered)) | 2 (Herbicidal ratio of 20% or higher and lower than 40%) | 5 (Herbicidal ratio of 90% or more (almost completely withered)) | e: wheat, effect on crop grade (wheat): 5 (Herbicidal ratio of 90% or more (almost completely withered)); herbicidal effect on D (Leptochloa chinensis), grade 0-5 (Leptochloa chinensis): 5 (Herbicidal ratio of 90% or more (almost completely withered)); d: soybean, effect on crop grade (soybean [1]): 0 (Herbicidal ratio of 5% or lower (almost no effect)); herbicidal effect on E, grade 0-5 (Cyperus difformis): 5 (Herbicidal ratio of 90% or more (almost completely withered)); M: Abutilon theophrasti, herbicidal effect grade (Abutilon theophrasti): 5 (Herbicidal ratio of 90% or more (almost completely withered)); c: corn, effect on crop grade (corn [2]): 5 (Herbicidal ratio of 90% or more (almost completely withered)); herbicidal effect on H (Echinochloa crus-galli var. crus-galli), grade 0-5 [3]: 5 (Herbicidal ratio of 90% or more (almost completely withered)); P: Stellaria media, herbicidal effect grade (Stellaria media): 5 (Herbicidal ratio of 90% or more (almost completely withered)) |
| COc1cc(Br)cc(C)c1C1=C(O)CC(CC(C)=O)C1=O (centres unmarked) [7-027, 2-(4-bromo-2-methoxy-6-methylphenyl)-3-hydroxy-5-(2-oxopropyl)cyclopent-2-enone] | 0 (Herbicidal ratio of 5% or lower (almost no effect)) | 0 (Herbicidal ratio of 5% or lower (almost no effect)) | 3 (Herbicidal ratio of 40% or higher and lower than 70%) | 2 (Herbicidal ratio of 20% or higher and lower than 40%) | 3 (Herbicidal ratio of 40% or higher and lower than 70%) | 5 (Herbicidal ratio of 90% or more (almost completely withered)) | 0 (Herbicidal ratio of 5% or lower (almost no effect)) | 3 (Herbicidal ratio of 40% or higher and lower than 70%) | Effect on crop grade, e: wheat (wheat): 2 (Herbicidal ratio of 20% or higher and lower than 40%); D (Leptochloa chinensis) herbicidal effect grade (Leptochloa chinensis; Table 24): 5 (Herbicidal ratio of 90% or more (almost completely withered)); Effect on crop grade, d: soybean (soybean [1]): 0 (Herbicidal ratio of 5% or lower (almost no effect)); E herbicidal effect grade (Cyperus difformis; Table 24): 4 (Herbicidal ratio of 70% or higher and lower than 90%); Herbicidal effect grade, M: Abutilon theophrasti (Abutilon theophrasti): 0 (Herbicidal ratio of 5% or lower (almost no effect)); Effect on crop grade, c: corn (corn [2]): 3 (Herbicidal ratio of 40% or higher and lower than 70%); H (Echinochloa crus-galli var. crus-galli) herbicidal effect grade ([3]; Table 24): 5 (Herbicidal ratio of 90% or more (almost completely withered)); Herbicidal effect grade, P: Stellaria media (Stellaria media): 0 (Herbicidal ratio of 5% or lower (almost no effect)) |
